How the values were obtained:
[1] = system: primary human fibroblasts; assay: caspase 3/7 activity apoptosis assay (ApoTox-Glo) in proliferating and quiescent fibroblasts; assay type: cell-based; settings: for effect on MG132-induced apoptosis: 2-ME with increasing MG132
Method: Referring to FIG. 2A, primary human fibroblasts were tested either in a proliferating state or after being induced into quiescence. Quiescence may be induced by either contact inhibition or serum starvation. Cells were treated with DHEA for four days, with bafilomycin added on the fourth day. Apoptosis was assessed based on the activity of caspase 3/7 for a fluorogenic substrate.
PPP inhibition and apoptosis analysis: Apoptosis was measured based on the levels of caspase 3/7 released into the media using the ApoTox-Glo Triplex Assay according to the manufacturer's instructions (Promega Corp., Madison, Wis.). Cells were plated in triplicate at 10,000 cells per well in white-walled, clear-bottom 96-well plates (Costar, Corning Life Sciences, Lowell, Mass.). For contact inhibition, cells were plated 7 days prior to the start of treatment, for serum starvation cells were plated 4 days prior to treatment and switched to 0.1% serum media for the remaining 3 days, while proliferating cells were plated the day prior to the start of treatment. […] Cells in serum starvation conditions were incubated in 0.1% serum during treatment as well. The apoptosis reagent was added at 100 μl per well and incubated for 1 h prior to reading. Luminescence was read from the top using a Synergy-2 plate reader (Biotek, Winooski, Vt.). Luminescence data were normalized to the vehicle only condition.
Apoptosis induction was assessed by monitoring caspase 3/7 activity using a luminescent caspase substrate. This assay is optimized for high-throughput screening in 96-well plates and allows multiple concentrations and combination of drugs to be tested in triplicate at different time points. […] Therefore, this assay was used to compare proliferating and serum-starved cells only.

tumor cells = settings: intraperitoneal injection of tumor cells; cited from earlier work
breast cancer cell lines = settings: cited from earlier work
[2] = system: skin papillomas and carcinomas; settings: cited from earlier work; for skin papilloma development: mouse
[3] = system: neoplasms, lymphoblastic lymphoma; settings: p53-deficient mouse; cited from earlier work
[4] = system: four day serum starved fibroblasts; assay: induction of apoptosis in quiescent fibroblasts by DHEA and/or autophagy inhibitor combined with proteasome inhibitors; assay type: cell-based, human; settings: proteasome inhibitor alone; four day serum starved fibroblasts
Method: Referring to FIG. 17, the effect of treatment using DHEA and/or an autophagy inhibitor combined with proteasome inhibitors on apoptosis in quiescent cells was analyzed.
In this experiment, the proteasome inhibitor, bortezomib, was used in varying concentrations with DHEA during a 48 hour treatment.

[5] = system: proliferating and quiescent fibroblasts; assay: annexin V / PI flow cytometry after proteasome inhibition; assay type: cell-based, human; settings: 24 hours
Method: To elucidate the responses of proliferating and quiescent fibroblasts to proteasome inhibition, the effects of known proteasome inhibitors on proliferating and quiescent fibroblasts were examined.
At the highest dose (10 μM), approximately 50% of proliferating cells were apoptotic (FIG. 24A-lower right (Q4), upper right (Q2), and upper left (Q1) quadrants represent early apoptosis, late apoptosis, and very late apoptosis or necrosis, respectively). In comparison, quiescent fibroblasts were largely unaffected by MG132 treatment, showing far lower levels of apoptosis.

LC3-II = LC3-II immunoblot (autophagy / autophagic flux); assay type: cell-based, human
Method: (§1) The levels of autophagy components—Atg5/Atg12, Atg7, Atg3, and LC3-I and LC3-II—were monitored in proliferating and contact-inhibited fibroblasts using immunoblotting (FIG. 21A). As a positive control for autophagy induction, samples of cells in each cell cycle state were also incubated in Kreb's Ringer Bicarbonate solution (KRB), a protocol that induces autophagy through amino acid starvation and elimination of other nutrients except glucose. Levels of Atg5/Atg12, Atg7, and LC3-II were elevated in all of the amino acid starvation and contact-inhibition states as compared to the proliferating state (FIG. 21A). Atg3 was induced in all quiescent states compared with proliferating states, including amino acid starvation. In order to differentiate whether the high levels of autophagy proteins resulted from a blockade of autophagy degradation or active flux through the pathway, we monitored the levels of LC3-II in proliferating and 7 dCI fibroblasts in the presence of bafilomycin A1 (Baf-A1). Baf-A1 is a vacuolar-type H^+-ATPase inhibitor that prevents autophagosome fusion with the lysosome due to an increase in lysosomal pH. […] This finding is consistent with active autophagic flux in quiescent fibroblasts
In addition to its role in providing amino acids and energy under starvation conditions, autophagy is involved in maintenance of cellular homeostasis and resistance to tumorigenesis through degradation of old or damaged proteins and entire organelles. It was hypothesized that autophagy in contact-inhibited cells could function to degrade old and/or damaged proteins that would otherwise accumulate in the cytoplasm due to lack of cell division as a mechanism for dilution of these proteins. Oxidation of proteins causes the formation of carbonyl groups on amino acids, and carbonylation can disrupt protein function. To monitor the extent of protein oxidation in proliferating and contact-inhibited fibroblasts, the protein carbonyl groups were derivatized using 2,4-dinitrophenylhydrazine (DNP), and monitored using immunoblotting with an antibody that recognizes the covalently added DNP. The levels of oxidized proteins in proliferating and 7 dCI fibroblasts were monitored in cells that were either competent to perform autophagy (control), or were stably expressing an shRNA against the essential autophagy components Atg5 (sh-Atg5) or Atg7 (sh-Atg7), which are known to represent autophagy-defective phenotypes in other model systems. […] In contact-inhibited fibroblasts, in contrast, the levels of oxidized proteins increased 1.5-fold±0.1 in 7 dCI sh-Atg5 fibroblasts as compared to vector control counterparts (p=0.009) (FIG. 22B). […]
To test this hypothesis, the levels of an autophagy-specific form of the LC3 protein, LC3 II, were monitored compared to a housekeeping protein (Klionsky et al., 2008, “Guidelines for the use and interpretation of assays for monitoring autophagy in higher eukaryotes,” Autophagy 4, 151-175, which is incorporated herein by reference as if fully set forth). […]
We observed an increase in the ratio of LC3 II to GAPDH in response to MG132 treatment for cells in proliferating, contact-inhibited and serum-starved states (FIG. 25B). To test whether the high levels of LC3 II in quiescent cells in response to MG132 treatment result from a blockade of autophagy degradation or from active flux through the pathway, LC3 II levels were monitored in proliferating and quiescent fibroblasts treated with MG132 in the presence or absence of bafilomycin A1 (Baf). […]

p62/SQSTM1 = assay: p62 immunoblot (autophagic flux); assay type: cell-based, human; settings: contact-inhibited (7 dCI) fibroblasts vs proliferating or vehicle/non-treated controls
Method: as §1

SMILES: CCN(CCO)CCCC(C)Nc1ccnc2cc(Cl)ccc12 (stereo not drawn) [hydroxychloroquine]
- induction of apoptosis ([1]; serum starved fibroblasts, FIG. 2B): induction of apoptosis

SMILES: Cc1ncc(C[n+]2csc(CCO)c2C)c(=O)[nH]1 [oxythiamine]
- tumor growth (tumor cells): inhibit tumor growth

SMILES: FC(F)(F)c1ccc2c(N3CCN(CCCNc4ccnc5cc(Cl)ccc45)CC3)ccnc2c1 [7-chloro-N-(3-(4-(7-trifluoromethyl)quinolin-4-yl)piperazin-1-yl)propyl)quinolin-4-amine]
- antiproliferative effects (breast cancer cell lines): very effective

SMILES: C[C@]12CCCC[C@@H]1CC[C@@H]1[C@@H]2CC[C@]2(C)C(=O)[C@H](F)C[C@@H]12 [16a-fluoro-5a-androstan-17-one]
- skin papilloma development [2]: effective in inhibiting skin papilloma development

SMILES: COc1cc2c(cc1O)CC[C@@H]1[C@@H]2CC[C@]2(C)[C@@H](O)CC[C@@H]12 [2-ME, 2-methoxyestradiol]
- effect on MG132-induced apoptosis ([1]; proliferating fibroblasts): little effect
- effect on MG132-induced apoptosis ([1]; serum-starved fibroblasts): sensitized

SMILES: C[C@H]1CC[C@@]2(C)C(=CC[C@@H]3[C@@H]2CC[C@]2(C)C(=O)CC[C@@H]32)C1 [3-β-methylandrost-5-en-17-one]
- skin papilloma development [2]: inhibits skin papilloma development
- development of skin papillomas and carcinomas ([2]; topical 7,12-dimethylbenz(a)anthracene (DMBA), mice): even more potent chemopreventive effect

SMILES: C[C@]12CCCCC1=CC[C@@H]1[C@@H]2CC[C@]2(C)C(=O)[C@H](F)C[C@@H]12 [16α-fluoro-5-androsten-17-one]
- skin papilloma development [2]: effective in inhibiting skin papilloma development
- death due to neoplasms [3]: delay death due to neoplasms

SMILES: CC(C)C[C@H](NC(=O)[C@H](Cc1ccccc1)NC(=O)c1cnccn1)B(O)O [bortezomib]
- apoptotic induction [4]: did not result in apoptotic induction
- induction of apoptosis (caspase 3/7) ([1]; bortezomib, serum-starved compared to proliferating fibroblasts): relatively low

SMILES: FC(F)(F)c1ccc2c(NCCCN3CCN(c4ccnc5cc(Cl)ccc45)CC3)ccnc2c1 [{3-[4-(7-chloro-quinolin-4-yl)-piperazin-1-yl]-propyl}-(7-rifluoromethyl-quinolin-4-yl)-amine]
- antiproliferative effects (breast cancer cell lines): very effective

SMILES: CC[C@H](C)[C@H](NC(=O)[C@H]([C@@H](C)CC)N(C)C(C)=O)C(=O)N[C@H](C(=O)N[C@@H](CC(C)C)C(=O)[C@@]1(C)CO1)[C@@H](C)O [epoxomicin]
- reduction of viability of proliferating cells ([5]; 1 μM): ~50%
- proliferating cell viability (fraction PI negative) ([5]; proliferating cells): statistically significant, dose-dependent decrease
- quiescent cell viability ([5]; quiescent cells, up to 10 μM MG132, 1 μM epoxomicin): maintained high viability

SMILES: CO/C1=C\C(C)=C\[C@@H](C)[C@@H](O)[C@@H](C)C/C(C)=C/C=C/[C@H](OC)[C@@H]([C@@H](C)[C@@H](O)[C@H](C)[C@@]2(O)C[C@@H](O)[C@H](C)[C@@H](C(C)C)O2)OC1=O [Baf, bafilomycin A1]
- LC3 II to GAPDH ratio vs MG132 alone (LC3-II; Baf combined with MG132, serum-starved cells): did not change
- LC3 II to GAPDH ratio vs MG132 alone (LC3-II; Baf in conjunction with MG132, proliferating and contact-inhibited cells): further increase
- ratio of LC3 II to GAPDH (LC3-II; Baf-treated proliferating and quiescent cells): increase
- levels of LC3-II (LC3-II; contact-inhibited (7 dCI) fibroblasts vs proliferating or vehicle/non-treated controls): further increase
- effect on MG132-induced caspase 3/7 activity ([1]; 100 nM Baf, proliferating cells, 24 hours post treatment): slight reduction
- effect on MG132-induced apoptosis (caspase 3/7) ([1]; 100 nM Baf, proliferating fibroblasts, 48 hours post treatment): no significant effect
- effect on MG132-induced apoptosis (caspase 3/7) ([1]; 100 nM Baf, serum-starved fibroblasts): strongly enhanced
- effect on bortezomib-induced caspase 3/7 activity ([1]; proliferating fibroblasts, 24 hours post treatment): reduced
- effect on bortezomib-induced caspase 3/7 activity ([1]; proliferating fibroblasts, after 48 hours): little effect
- induction of apoptosis in the presence of Baf vs MG132 alone ([1]; serum-starved fibroblasts, 48 hours, 10 μM MG132): more than doubled
- levels of p62/SQSTM1 (p62/SQSTM1): further increase

From patent publication US20130064815A1, “INDUCING APOPTOSIS IN QUIESCENT CELLS” (THE TRUSTEES OF PRINCETON UNIVERSITY, priority 2011, published 2013)
